Experimental data reported in ChEMBL document CHEMBL1151526, “3-Acetoxy-2,2-bi-1H-indol as a novel inhibitor of ATP binding to DnaA, the protein initiating chromosomal replication in escherichia coli” (Bioorg Med Chem Lett, 1994).

Test: Inhibition of [alpha-32P]ATP binding to DnaA protein purified from Escherichia coli

Row | Structure (SMILES) | IC50 [mM]
1 | CC(=O)Oc1c(-c2cc3ccccc3[nH]2)[nH]c2ccccc12 | 0.04
2 | CC(=O)Oc1c(-c2c(C(C)=O)c3ccccc3n2C(C)=O)[nH]c2ccccc12 | 1.5
3 | O=C1C(c2c[nH]c3ccccc23)=C(c2c[nH]c3ccccc23)C(=O)N1Cc1ccccc1 | > 10
4 | CC(c1ccccc1)N1C(=O)c2c(c3c4ccccc4[nH]c3c3[nH]c4ccccc4c23)C1=O (stereo not given) | 5
5 | CCOc1c(-c2cc3ccccc3[nH]2)[nH]c2ccccc12 | 0.2
6 | Nc1ncnc2c1ncn2[C@@H]1O[C@H](CO)[C@@H](O)[C@H]1O [ADENOSINE] | > 10

Results, then the compound that gave them:

Row | IC50 [mM] | Structure (SMILES)
7 | 1 | O=C1NC(=O)C(c2c[nH]c3ccccc23)=C1c1c[nH]c2ccccc12 [RO-316233]
8 | 0.2 | O=C1/C(=C2\Nc3ccccc3C2=O)Nc2ccccc21 [INDIGO]
9 | > 10 | c1ccc2[nH]ccc2c1 [INDOLE]
10 | 3 | CN(C)CCCn1cc(C2=C(c3c[nH]c4ccccc34)C(=O)NC2=O)c2ccccc21 [GF-109203]
